Assay: DSC miscibility screening of polymer-surfactant-ganaxolone combinations
Format: physicochemical
Conditions: added to all formulations

CCCC(CCC)C(=O)O [Valproic acid]
Effect of addition on crystallinity of the ganaxolone: increased crystallinity
